From PubChem BioAssay AID256 (DTP/NCI, 2004)
Inconclusive results and toxic doses are left out. How the source made its calls: active means survival T/C of 150% or more; inactive means T/C below 125% in these data. Residues, ends and D or L forms follow the SMILES beside them. *: point of attachment. Cbz = O=C(OCc1ccccc1)*; Bn = c1ccc(C*)cc1

Tested on: CD2F1 mice, L1210 leukemia ip, survival T/C
Experiment: NCI In Vivo Anticancer Drug Screen. Data for tumor model L1210 Leukemia (intraperitoneal) in CD2F1 (CDF1) mice
Settings: higher = longer survival
In short: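 Antitumor effect is scored in animals hosting a serially transplanted tumor. Values compare compound-dosed animals against vehicle-only controls as a simple quotient.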

[1] = endpoint: mean survival time, dose: 100.0 mg/kg/injection, schedule: Q04DX003 (ip), vehicle: saline with Tween-80
[2] = endpoint: mean survival time, dose: 200.0 mg/kg/injection, schedule: Q04DX003 (ip), vehicle: saline with Tween-80
[3] = endpoint: mean survival time, dose: 400.0 mg/kg/injection, schedule: Q04DX003 (ip), vehicle: saline with Tween-80
[4] = endpoint: mean survival time, dose: 100.0 mg/kg/injection, schedule: Q04DX002 (ip), vehicle: saline with Tween-80
[5] = endpoint: mean survival time, dose: 200.0 mg/kg/injection, schedule: Q04DX002 (ip), vehicle: saline with Tween-80
[6] = endpoint: mean survival time, dose: 400.0 mg/kg/injection, schedule: Q04DX002 (ip), vehicle: saline with Tween-80
[7] = endpoint: mean survival time, dose: 50.0 mg/kg/injection, schedule: Q04DX002 (ip), vehicle: saline with Tween-80
[8] = endpoint: mean survival time, dose: 100.0 mg/kg/injection, schedule: Q01DX001 (ip), vehicle: saline with Tween-80
[9] = endpoint: mean survival time, dose: 100.0 mg/kg/injection, schedule: Q01DX009 (ip), vehicle: saline with Tween-80
[10] = endpoint: mean survival time, dose: 200.0 mg/kg/injection, schedule: Q01DX001 (ip), vehicle: saline with Tween-80
[11] = endpoint: mean survival time, dose: 400.0 mg/kg/injection, schedule: Q01DX001 (ip), vehicle: saline with Tween-80
[12] = endpoint: mean survival time, dose: 200.0 mg/kg/injection, schedule: Q01DX009 (ip), vehicle: saline with Tween-80
[13] = endpoint: mean survival time, dose: 400.0 mg/kg/injection, schedule: Q01DX009 (ip), vehicle: saline with Tween-80

Measured: T/C

NC(c1ccccc1)C(N)c1ccccc1 (stereo not drawn)
inactive: endpoint: mean survival time, dose: 25.0 mg/kg/injection, schedule: Q04DX003 (ip), vehicle: other 102 % of control | endpoint: mean survival time, dose: 50.0 mg/kg/injection, schedule: Q04DX003 (ip), vehicle: other 94 % of control | endpoint: mean survival time, dose: 100.0 mg/kg/injection, schedule: Q04DX003 (ip), vehicle: other 88 % of control

O=C1CCC2(CCC(=O)O2)O1
inactive: endpoint: mean survival time, dose: 100.0 mg/kg/injection, schedule: Q04DX003 (ip), vehicle: saline 94 % of control | endpoint: mean survival time, dose: 200.0 mg/kg/injection, schedule: Q04DX003 (ip), vehicle: saline 100 % of control | endpoint: mean survival time, dose: 400.0 mg/kg/injection, schedule: Q04DX003 (ip), vehicle: saline 93 % of control

CCCCCCCCSC#N
inactive: endpoint: mean survival time, dose: 50.0 mg/kg/injection, schedule: Q01DX001 (ip), vehicle: carboxymethylcellulose (CMC) 100 % of control

CCCCCCCCCCCC[Si](CCCCCCCCCCCC)(c1ccccc1)c1ccccc1
inactive: [1] 103 % of control | [2] 93 % of control | [3] 93 % of control

Cc1ccc2c(c1)C(=O)/C(=C/c1ccccn1)CCO2
inactive: [4] 92 % of control | [5] 88 % of control | [6] 92 % of control

Cc1cc(=O)n(Cc2ccccc2)n1-c1ccccc1
inactive: endpoint: mean survival time, dose: 25.0 mg/kg/injection, schedule: Q04DX002 (ip), vehicle: saline with Tween-80 97 % of control | [7] 100 % of control | [4] 87 % of control | [1] 98 % of control

CCCCOC(=O)COc1c(Cl)ccc(Cl)c1Cl
inactive: [4] 102 % of control | [5] 95 % of control

COC(=O)C(Cc1ccccc1)NC(=O)C(CSCc1ccccc1)NC(=O)OCc1ccccc1 (stereo not drawn) (Cbz-Cys(Bn)-Phe-OMe; configuration not given here)
inactive: [8] 93 % of control | [9] 91 % of control | [10] 95 % of control | [11] 89 % of control

ClC(Cl)c1c2c(cc3c1CCCC3)CCCC2
inactive: [9] 113 % of control | [12] 116 % of control | [13] 102 % of control

COC(=O)c1ccc(OC)c2nc3c(C=O)c(OC)cc(OC)c3nc12
inactive: endpoint: mean survival time, dose: 5.3 mg/kg/injection, schedule: Q01DX009 (ip), vehicle: saline with Tween-80 94 % of control | endpoint: mean survival time, dose: 8.0 mg/kg/injection, schedule: Q01DX009 (ip), vehicle: saline with Tween-80 92 % of control | endpoint: mean survival time, dose: 12.0 mg/kg/injection, schedule: Q01DX009 (ip), vehicle: saline with Tween-80 94 % of control | endpoint: mean survival time, dose: 18.0 mg/kg/injection, schedule: Q01DX009 (ip), vehicle: saline with Tween-80 97 % of control

Cc1ccc(CCC=O)o1
inactive: [7] 100 % of control | [4] 100 % of control | [5] 100 % of control

Oc1ccccc1C=NC1CCCCC1N=Cc1ccccc1O.[Cu] (stereo not drawn)
inactive: [4] 88 % of control | [5] 88 % of control | [6] 91 % of control

O=C(O)CNCC(C(=O)O)C(=O)O
inactive: endpoint: mean survival time, dose: 25.0 mg/kg/injection, schedule: Q04DX002 (ip), vehicle: saline 96 % of control | endpoint: mean survival time, dose: 50.0 mg/kg/injection, schedule: Q04DX002 (ip), vehicle: saline 90 % of control | endpoint: mean survival time, dose: 100.0 mg/kg/injection, schedule: Q04DX002 (ip), vehicle: saline 90 % of control

Cc1cccc(/C=N\OCCc2ccccc2)n1
inactive: [9] 94 % of control | [1] 100 % of control | [12] 98 % of control | [2] 96 % of control | [13] 93 % of control | [3] 91 % of control

O=c1nc(N2CCCC2)ccn1C1OC(CO)C(O)C1O (stereo not drawn)
inactive: endpoint: median survival time, dose: 12.5 mg/kg/injection, schedule: Q01DX005 (ip), vehicle: water 100 % of control | endpoint: median survival time, dose: 25.0 mg/kg/injection, schedule: Q01DX005 (ip), vehicle: water 101 % of control | endpoint: median survival time, dose: 50.0 mg/kg/injection, schedule: Q01DX005 (ip), vehicle: water 108 % of control | endpoint: median survival time, dose: 100.0 mg/kg/injection, schedule: Q01DX005 (ip), vehicle: water 101 % of control | endpoint: median survival time, dose: 200.0 mg/kg/injection, schedule: Q01DX005 (ip), vehicle: water 104 % of control

O=C(NC(=S)c1ccccc1)Nc1ccc(Cl)cc1
inactive: [8] 90 % of control | [10] 94 % of control | [11] 94 % of control
